Experimental findings from patent publication US9550796B2, “Pyrrolopyrrolone derivatives and their use as BET inhibitors” (NOVARTIS AG, priority 2013, dated 2017) are described below.

In assay [1] the test system is MV-4-11. In words: Cell growth inhibition assay (CellTiter-Glo), MV-4-11. The class given is cell-based, human. The settings on record: MV-4-11 cells, 4 days; for GI50: Homo sapiens, MV4-11, 96 h, half-maximal growth inhibition; for MV-4-11 TGI: total growth inhibition. As to the method: (§1) Cell Growth Inhibition Assay
(§2) The human leukemia cell lines MV-4-11, THP-1 and K-562 were employed to characterize the effect of BET inhibitors on cellular proliferation and viability. Cells were obtained from the American Type Culture Collection (ATCC) and cultured at 37° C. in a humidified 5% CO2 incubator in the following media: MV-4-11: DMEM high glucose (Animed #1-26F01-I), 10% FCS (Animed #2-01F26-I), 4 mM L-Glutamine (Animed #5-10K50), 1 mM Sodium Pyruvate (Animed # G03625P), 1× Penicillin-Streptomycin (Animed # F12478P); K-562: Iscove's MEM (Animed #1-28F16-I), 10% FCS (Animed #2-01F26-I), 4 mM L-Glutamine (Animed #5-10K50), 1× Penicillin-Streptomycin (Animed # F12478P); THP-1: RPMI-1640 (Animed #1-41F01-I), 10% FCS (Animed #2-01F26-I), 2 mM L-Glutamine (Animed #5-10K50), 10 mM HEPES (Animed #5-31F100), 1 mM Sodium Pyruvate (Animed # G03625P), 1× Penicillin-Streptomycin (Animed # F12478P). The AML lines MV-4-11 and THP-1 are very sensitive to BET inhibitors and show massive cell death upon BET inhibition (Zuber et al., Nature, 478 (2011), 524-8). Compound-mediated suppression of cell proliferation/viability was assessed by quantification of cellular ATP levels using the CellTiter-Glo (CTG) reagent (Promega). Briefly, cells were seeded in 20 μl fresh medium into 384-well plates, followed by addition of 5 μL medium containing compound dilutions at 5-fold their final intended concentration. Dose-response effects were assessed by 3-fold serial dilutions of the test compound, starting at 10 μM. Following incubation of the cells for 4 days at 37° C. and 5% CO2, the effect of inhibitors on cell viability was quantified following addition of 20 μl CTG and luminescence quantification (integration time: 100 ms) as per vendor manual, using a correspondingly equipped Tecan M200 multi-mode platereader (TECAN, Switzerland). For data analysis, the assay background value determined in wells containing medium, but no cells, was subtracted from all data points. To enable differentiation of cytotoxic from cytostatic compounds, the number of viable cells is assessed relative to that observed at the time of compound addition using a separate cell plate (day 0). The effect of a particular test compound concentration on cell proliferation/viability is expressed as percentage of the background- and day 0-corrected luminescence reading obtained for cells treated with vehicle only (DMSO, 0.1% final concentration), which is set as 100%, whereas that luminescence reading for wells containing medium is set as −100%. Compound concentrations leading to half-maximal (IC50) and total growth inhibition (TGI) were determined using standard four parameter curve fitting.

Assay [2] has as its target BRD3 (Homo sapiens (Human), UniProt Q15059). The experiment in a line: TR-FRET in-vitro binding assay for BRD3. The settings on record: 45 nM His-Brd3(20-477), acetyl-histone H4 (AcK 5, 8, 12, 16) peptide. As to the method: (§3) TR-FRET In-Vitro Binding Assays for BRD2, BRD3, and BRD4: All assays were performed in 384-well microtiter plates. […] Liquid handling and incubation steps were done on an Innovadyne Nanodrop Express equipped with a robotic arm (Thermo CatX, Perkin Elmer/Caliper Twister II) and an incubator (Liconic STX40, Thermo Cytomat 2C450). The assay plates were prepared by addition of 50 nl per well of compound solution in 90% DMSO HummingBird nanodispenser (Zinsser Analytic). […] Reactions were incubated at 30° C. for 35 minutes. […] After 35 minutes incubation at 30° C., plates were measured in a Perkin Elmer EnVision multilabel reader. […] The stock solutions were stored at […] if not used immediately. For the test procedure the vials were defrosted and identified by a scanner whereby a working sheet was generated that guided the subsequent working steps. Compound dilutions were made in 96 well plates. This format enabled the assay of maximally […] at 8 concentrations (single points) including 4 reference compounds, if desired (known BET inhibitors from the prior art, for this and other assays of the type disclosed herein). The dilution protocol included the production of “pre-dilution plates”, “master plates” and “assay plates”. Polypropylene 96-well plates were used as pre-dilution plates. […] All dilution steps were done on a HamiltonSTAR robot. […] Identical “assay plates” were then prepared by pipetting 50 nL each of compound dilutions of the “master plates” into 384-well “assay plates” by means of a HummingBird 384-channel dispenser. These plates were used directly for the assay which was performed in a total volume of 13.55 μL.
On the technique in general: In TR-FRET formats the signal depends on donor and acceptor labels being close together.

Assay [3] relates to THP-1. The experiment in a line: Cell growth inhibition assay (CellTiter-Glo), THP-1. Conditions: THP-1 cells, 4 days; for GI50: Homo sapiens, 96 h, half-maximal growth inhibition; for THP-1 TGI: total growth inhibition. The class given is cell-based, human. As for the experimental part:
as §1, §2
Background: In ATP-based viability assays light output follows the ATP content of the culture.

Assay [4] addresses BRD4 (Homo sapiens (Human), UniProt O60885). In words: TR-FRET in-vitro binding assay for BRD4. The settings on record: 45 nM His-Brd4(44-477), acetyl-histone H4 (AcK 5, 8, 12, 16) peptide. As to the method:
as §3

Assay [5] concerns the target CREBBP (Homo sapiens (Human), UniProt Q92793). In words: AlphaScreen in-vitro binding assay for CREBBP. Conditions: 324 nM His-CREBBP (1081-1197), acetyl-histone H4 (AcK 5, 8, 12) peptide. As to the method:
AlphaScreen In-Vitro Binding Assay for CREBBP
In order to assess bromodomain selectivity, we set up a binding assay using the bromodomain encoded by the CREBBP gene. […] The assay was started by stepwise addition of 4.5 μL per well of bromo domain protein (50 mM HEPES, pH 7.5, 0.005% Tween20, 0.02% BSA, 150 mM NaCl, 324 nM His-CREBBP (1081-1197) (custom production at Viva Biotech Ltd.)) and 4.5 μL per well of peptide solution (50 mM HEPES, pH 7.5, 0.005% Tween20, 0.02% BSA, 150 mM NaCl, 120 nM acetyl-histone H4 (AcK 5, 8, 12) (Biosyntan GmbH)). Reactions were incubated at 30° C. for 35 minutes. Subsequently 4.5 μL per well detection mix (50 mM HEPES, pH 7.5, 0.005% Tween20, 0.02% BSA, 150 mM NaCl, 45 μg/ml Ni-chelate acceptor beads, 45 μg/mL streptavidin-donor beads) (Perkin Elmer)) were added. After 60 minutes incubation at room temperature, plates were measured in a Perkin Elmer EnVision multilabel reader. IC50 values were determined from percent inhibition values at different compound concentrations by non-linear regression analysis.
Test compounds were dissolved in DMSO (10 mM) and transferred into 1.4 mL flat bottom or V-shaped Matrix tubes carrying a unique 2D matrix. The stock solutions were stored at […] if not used immediately. For the test procedure the vials were defrosted and identified by a scanner whereby a working sheet was generated that guided the subsequent working steps. Compound dilutions were made in 96 well plates. This format enabled the assay of maximally […] at 8 concentrations (single points) including 4 reference compounds, if desired (known BET inhibitors from the prior art, for this and other assays of the type disclosed herein). The dilution protocol included the production of “pre-dilution plates”, “master plates” and “assay plates”.
Polypropylene 96-well plates were used as pre-dilution plates. A total of 4 pre-dilution plates were prepared including 10 test compounds each on the plate positions A1-A10, one standard compound at A11 and one DMSO control at […]. All dilution steps were done on a HamiltonSTAR robot.
30 μL of individual compound dilutions including standard compound and controls of the 4 “pre-dilution plates” were transferred into a 384-well “master plate” including the following concentrations 10000, […], 1000, 300, 100, 30, 10 and 3 μM, respectively in 90% of DMSO.
Identical “assay plates” were then prepared by pipetting 50 nL each of compound dilutions of the “master plates” into 384-well “assay plates” by means of a HummingBird 384-channel dispenser. These plates were used directly for the assay which was performed in a total volume of 13.55 μL.

Assay [6] relates to K-562. The experiment in a line: Cell growth inhibition assay (CellTiter-Glo), K-562. The class given is cell-based, human. Conditions: K-562 cells, 4 days; for GI50: Homo sapiens, K562, 96 h, half-maximal growth inhibition; for K-562 TGI: total growth inhibition. As for the experimental part:
as §1, §2

Each structure is given as a SMILES string.

CREBBP, sequence (Q92793 1081-1197): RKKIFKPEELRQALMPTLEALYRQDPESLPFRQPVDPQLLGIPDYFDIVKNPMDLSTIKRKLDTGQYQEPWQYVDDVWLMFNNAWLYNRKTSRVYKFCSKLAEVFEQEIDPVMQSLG
BRD3, sequence (Q15059 20-477): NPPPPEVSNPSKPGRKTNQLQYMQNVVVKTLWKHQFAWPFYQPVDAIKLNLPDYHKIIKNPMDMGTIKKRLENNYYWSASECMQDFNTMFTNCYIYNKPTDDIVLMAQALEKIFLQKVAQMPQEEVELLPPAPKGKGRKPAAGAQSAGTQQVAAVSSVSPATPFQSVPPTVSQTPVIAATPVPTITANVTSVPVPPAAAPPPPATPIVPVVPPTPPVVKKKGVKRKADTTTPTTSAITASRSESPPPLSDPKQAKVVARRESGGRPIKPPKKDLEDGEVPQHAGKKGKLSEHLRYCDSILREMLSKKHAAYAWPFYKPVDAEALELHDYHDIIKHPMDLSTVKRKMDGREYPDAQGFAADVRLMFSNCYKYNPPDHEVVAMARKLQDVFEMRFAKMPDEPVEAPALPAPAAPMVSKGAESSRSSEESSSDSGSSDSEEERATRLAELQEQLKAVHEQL

What is called GI50 is the concentration at which growth is held to half of that of the control. Low values mean greater sensitivity of the cells, high ones lower sensitivity of the cells. As usually defined, the IC50 is the concentration that inhibits the measured activity by half. Turning to `CNC(=O)c1cn(C)c2c1C(=O)N(c1cc(C)c3nnn(C)c3c1)C2c1ccc(Cl)cc1` (stereo not drawn) [Example 98, 6-(4-chlorophenyl)-5-(1,4-dimethyl-1H-benzo[d][1,2,3]triazol-6-yl)-N,1-dimethyl-4-oxo-1,4,5,6-tetrahydropyrrolo[3,4-b]pyrrole-3-carboxamide], the figures for the GI50 in assay [1], in assay [3] and in assay [6] were 4.95 nM, 5.57 nM and 37.3 nM, respectively. Besides, the “MV-4-11 TGI” value in assay [1] turned out to be 12.53 nM. Further, the IC50 is 12 nM in assay [2], below 11 nM in assay [4] and 6700 nM in assay [5]. For the same compound, in assay [3], the “THP-1 TGI” value was found to be 15.97 nM. Further, the “K-562 TGI” value in assay [6] was above 8200 nM.

Take `Cc1cc(N2C(=O)c3c(C4CN(C)C4)cn(C)c3C2c2ccc(Cl)cc2)cn2c(C)nnc12` (stereo not drawn) [Example 118, 6-(4-chlorophenyl)-5-(3,8-dimethyl-[1,2,4]triazolo[4,3-a]pyridin-6-yl)-1-methyl-3-(1-methylazetidin-3-yl)-5,6-dihydropyrrolo[3,4-b]pyrrol-4(1H)-one]: the GI50 was found to be 374 nM in assay [1], 956 nM in assay [3] and 3830 nM in assay [6]. In addition, the “MV-4-11 TGI” value in assay [1] came out at 591.5 nM. Besides, the IC50 stood at 22 nM in assay [2], 21 nM in assay [4] and 32300 nM in assay [5]. Further, the “THP-1 TGI” value in assay [3] was found to be 1810 nM. In assay [6], the “K-562 TGI” value is above 10000 nM.

`Cc1cn(CCN(C)C)c2c1C(=O)N(c1cc(C)c3nnc(C)n3c1)C2c1ccc(Cl)cc1` (stereo not drawn) [Example 128, 6-(4-chlorophenyl)-5-(3,8-dimethyl-[1,2,4]triazolo[4,3-a]pyridin-6-yl)-1-(2-(dimethylamino)ethyl)-3-methyl-5,6-dihydropyrrolo[3,4-b]pyrrol-4(1H)-one]: the figures for the GI50 in assay [1], in assay [3] and in assay [6] were 39.5 nM, 37.7 nM and 203 nM, respectively. In addition, the “MV-4-11 TGI” value in assay [1] was determined as 62.9 nM. In addition, the IC50 was found to be 46 nM in assay [2], 45 nM in assay [4] and 27600 nM in assay [5]. The “THP-1 TGI” value in assay [3] stood at 105.1 nM. The “K-562 TGI” value in assay [6] is above 10000 nM.

With `COc1ncccc1-c1cc2c(n1C)C(c1ccc(Cl)cc1)N(c1cc(C)c3nnc(C)n3c1)C2=O` (stereo in doubt) [Example 135, (R)-6-(4-chlorophenyl)-5-(3,8-dimethyl-[1,2,4]triazolo[4,3-a]pyridin-6-yl)-2-(2-methoxypyridin-3-yl)-1-methyl-5,6-dihydropyrrolo[3,4-b]pyrrol-4(1H)-one], the results for the GI50 in assay [1], in assay [3] and in assay [6] were 6.08 nM, 6.4 nM and 21.4 nM, respectively. Also, the “MV-4-11 TGI” value in assay [1] was determined as 12.44 nM. The IC50 in assay [2] came to 21 nM; in assay [4], 14 nM; in assay [5] it was 470 nM. Besides, in assay [3], the “THP-1 TGI” value worked out at 14.95 nM. The “K-562 TGI” value in assay [6] was above 10000 nM.

As for `Cc1cc(N2C(=O)c3cc(C4CCOCC4)n(C)c3C2c2ccc(Cl)cc2)cn2c(C)nnc12` (stereo not drawn) [Example 121, 6-(4-chlorophenyl)-5-(3,8-dimethyl-[1,2,4]triazolo[4,3-a]pyridin-6-yl)-1-methyl-2-(tetrahydro-2H-pyran-4-yl)-5,6-dihydropyrrolo[3,4-b]pyrrol-4(1H)-one], the GI50 in assay [1] is 54.9 nM; in assay [3] it was 44.7 nM; in assay [6] it was 164 nM. In addition, the “MV-4-11 TGI” value in assay [1] was 89.3 nM. Also, the results for the IC50 in assay [2], in assay [4] and in assay [5] were 44 nM, 56 nM and 640 nM, respectively. The “THP-1 TGI” value in assay [3] stood at 86.2 nM. Moreover, the “K-562 TGI” value in assay [6] is above 10000 nM.

With `CNC(=O)c1cn(C)c2c1C(=O)N(c1cc(C)c3nnc(C(F)F)n3n1)C2c1ccc(Cl)cc1` (stereo not drawn) [Example 108, 6-(4-chlorophenyl)-5-(3-(difluoromethyl)-8-methyl-[1,2,4]triazolo[4,3-b]pyridazin-6-yl)-N,1-dimethyl-4-oxo-1,4,5,6-tetrahydropyrrolo[3,4-b]pyrrole-3-carboxamide], the GI50 in assay [1] came to 43.2 nM; in assay [3] it was 32.3 nM; in assay [6], 322 nM. Also, the “MV-4-11 TGI” value in assay [1] worked out at 78.35 nM. Moreover, the IC50 in assay [2] is 19 nM; in assay [4], 16 nM; in assay [5], above 37000 nM. In addition, the “THP-1 TGI” value in assay [3] was 72.75 nM. In addition, the “K-562 TGI” value in assay [6] is above 10000 nM.
